Values quoted from earlier work, collected in patent US20050080043A1, “Self-preserved antibacterial nasal, inhalable, and topical ophthalmic preparations and medications” (priority 2000, published 2005).
Like-named read-outs stand apart in the source and are kept apart here.

- stability of drug solution (pH 5.0): very stable
- stability of drug solution (pH 6.8): relatively unstable
SMILES: CC[C@@H]1C(=O)OC[C@@H]1Cc1cncn1C [pilocarpine]
